The test system of series [1] is MDA-MB-231. The note with it: cited from earlier work.
Series [2] concerns A549. The note with it: cited from earlier work.
The test system of series [3] is HT29. The note with it: cited from earlier work.
In a further series the test system is P388 leukemia. The note with it: cited from earlier work; for antitumor activity / toxicity in antitumoral study: P388 leukemia cell line in CDF1 mice.
The next series deals with L1210. Conditions: L1210 cell line; cited from earlier work.
For a further series, the system named is KB cells. Conditions: KB cell line; cited from earlier work.
In series [4] the test system is MDA-MB-231. Briefly: SRB colorimetric cytotoxicity assay, MDA-MB-231. The series is classed as cell-based. The note with it: for LC50 (concentration killing 50% of cells) / GI50: Homo sapiens; for LC50 (concentration killing 50% of cells): MDA-MB-231, 72 h, read-out: LC50; for GI50 / TGI: MDA-MB-231, 72 hours treatment, SRB; for TGI: total cell growth inhibition. The source says: (§1) The aim of this assay is to evaluate the in vitro cytostatic (ability to delay or arrest tumor cell growth) or cytotoxic (ability to kill tumor cells) activity of the samples being tested.
(§2) A colorimetric assay, using sulforhodamine B (SRB) reaction has been adapted to provide a quantitative measurement of cell growth and viability (following the technique described by Skehan et al. J. Natl. Cancer Inst. 1990, 82, 1107-1112).
(§3) This form of assay employs SBS-standard 96-well cell culture microplates (Faircloth et al. Methods in Cell Science, 1988, 11(4), 201-205; Mosmann et al, Journal of Immunological Methods, 1983, 65(1-2), 55-63). All the cell lines used in this study were obtained from the American Type Culture Collection (ATCC) and derive from different types of human cancer.
(§4) Cells were maintained in Dulbecco's Modified Eagle Medium (DMEM) supplemented with 10% Fetal Bovine Serum (FBS), 2 mM L-glutamine, 100 U/mL penicillin and 100 U/mL streptomycin at 37° C., 5% CO2 and 98% humidity. For the experiments, cells were harvested from subconfluent cultures using trypsinization and resuspended in fresh medium before counting and plating.
(§5) Cells were seeded in 96 well microtiter plates, at 5×10^3-7.5×10^3 cells per well in aliquots of 150 μL, and allowed to attach to the plate surface for 18 hours (overnight) in drug free medium. After that, one control (untreated) plate of each cell line was fixed (as described below) and used for time zero reference value. Culture plates were then treated with test compounds (50 μL aliquots of 4× stock solutions in complete culture medium plus 4% DMSO) using ten serial dilutions (concentrations ranging from 10 to 0.00262 μg/mL) and triplicate cultures (1% final concentration of DMSO). After 72 hours treatment, the antitumor effect was measured by using the SRB methodology: Briefly, cells were washed twice with PBS, fixed for 15 min in 1% glutaraldehyde solution at room temperature, rinsed twice in PBS, and stained in 0.4% SRB solution for 30 min at room temperature. Cells were then rinsed several times with 1% acetic acid solution and air-dried at room temperature. SRB was then extracted in 10 mM trizma base solution and the absorbance measured in an automated spectrophotometric plate reader at 490 nm. Effects on cell growth and survival were estimated by applying the NCI algorithm (Boyd M R and Paull K D. Drug Dev. Res. 1995, 34, 91-104).
(§6) Using the mean±SD of triplicate cultures, a dose-response curve was automatically generated using nonlinear regression analysis. Three reference parameters were calculated (NCI algorithm) by automatic interpolation: GI50=compound concentration that produces 50% cell growth inhibition, as compared to control cultures; TGI=compound concentration that produces total cell growth inhibition (cytostatic effect), as compared to control cultures, and LC50=compound concentration that produces 50% net cell killing (cytotoxic effect).

The subject of series [5] is HT29. Briefly: SRB colorimetric cytotoxicity assay, HT29. The series is classed as cell-based. The note with it: for TGI / GI50: HT29, 72 hours treatment, SRB; for TGI: total cell growth inhibition; for CC50 / GI50: Homo sapiens; for CC50: HT-29, 72 h, read-out: LC50; for GI50: HT-29.
Source text: as §1, §2, §3, §4, §5, §6

The subject of series [6] is A549. In words: SRB colorimetric cytotoxicity assay, A549. Conditions: for TGI / GI50: A549, 72 hours treatment, SRB; for TGI: total cell growth inhibition; for CC50 / GI50: Homo sapiens; for CC50: A549, 72 h, read-out: LC50. The series is classed as cell-based.
Source text: as §1, §2, §3, §4, §5, §6

≈ marks a conversion by molar mass, not a printed value. Where two headings read alike, the source gives them in different places.

The GI50 is the concentration that inhibits growth by half. Take `COC1CC(C)OC(CCC(C)C(O)C(C)C2OC(=O)/C=C/C(C)=C/CC(O)CC3C=CCC(CC(OC)C(C)C(O)CC(O)C(C)C(C(C)C(O)C(C)CCC4CC(OC)CC(C)O4)OC(=O)/C(C)=C/CC(O)CC4C=CCC(CC(OC)C(C)C(O)CC(O)C2C)O4)O3)C1` (stereo not shown) [compound a]: the concentration for 50% growth inhibition (GI50) in the series with MDA-MB-231 [1] is 0.808 µM; in the series with A549 [2] it was 0.228 µM; in the series on HT29 [3], 0.338 µM.
Take `CO[C@H]1CC(CC[C@H](C)C2OC(=O)/C=C/C(C)=C/CC(O)C[C@@H]3C=CCC(C[C@H](OC)[C@@H](C)[C@@H](O)C[C@@H](O)[C@H](C)[C@H](O)[C@@H](C)[C@H]([C@@H](C)CC[C@H]4C[C@H](OC)C[C@H](C)O4)OC(=O)/C=C/C(C)=C/C[C@H](O)C[C@@H]4C=CCC(C[C@H](OC)[C@@H](C)[C@@H](O)C[C@@H](O)[C@H](C)[C@H](O)[C@H]2C)O4)O3)O[C@@H](C)C1` (single isomer, unassigned) [isomer 11]: in the series with P388 leukemia, the antitumor activity entry is listed as “did not show promising antitumor activity” and the “toxicity in antitumoral study” value is “toxic”.
Turning to `CO[C@H]1CC(CC[C@H](C)[C@H](O)[C@H](C)C2OC(=O)/C=C/C(C)=C/C[C@H](O)C[C@@H]3C=CC[C@@H](C[C@H](OC)[C@@H](C)[C@@H](O)C[C@@H](O)[C@H](C)[C@H](O)[C@@H](C)[C@H]([C@@H](C)CC[C@H]4C[C@H](OC)C[C@H](C)O4)OC(=O)/C=C/C(C)=C/C[C@H](O)C[C@@H]4C=CCC(C[C@H](OC)[C@@H](C)[C@@H](O)C[C@@H](O)[C@@H]2C)O4)O3)O[C@@H](C)C1` (stereo partly shown) [isoswinholide A], in the series on P388 leukemia, the antitumor activity result is given as “did not show promising antitumor activity” and the “toxicity in antitumoral study” value is given as “toxic”. In the series on L1210, the “IC50 (cytotoxicity)” value is 1.35 µg/mL (≈ 0.971 µM). In addition, the “IC50 (cytotoxicity)” value in the series on KB cells was 1.1 µg/mL (≈ 0.791 µM).
Take `CO[C@H]1CC(CC[C@H](C)[C@H](O)[C@H](C)[C@H]2OC(=O)/C=C/C(C)=C/C[C@H](O)C[C@@H]3C=CC[C@@H](C[C@H](OC)[C@@H](C)[C@@H](O)C[C@@H](O)[C@H](C)[C@@H]([C@@H](C)[C@@H](O)[C@@H](C)CC[C@H]4C[C@H](OC)C[C@H](C)O4)OC(=O)/C=C/C(C)=C/C[C@H](O)C[C@@H]4C=CC[C@@H](C[C@H](OC)[C@@H](C)[C@@H](O)C[C@@H](O)[C@@H]2C)O4)O3)O[C@@H](C)C1` (stereo partly shown) [Swinholide A]: the antitumor activity entry with P388 leukemia is “did not show promising antitumor activity”. In addition, the “toxicity in antitumoral study” value with P388 leukemia is listed as “toxic”. The entries for the “IC50 (cytotoxicity)” value in the series on L1210 and in the series on KB cells were 0.03 µg/mL (≈ 0.0216 µM) and 0.04 µg/mL (≈ 0.0288 µM), respectively.
Broadly, the T/C is the result in the treated group divided by that in the control group, in per cent. With `COC1CC(C)OC(CCC(C)C(O)C(C)C2OC(=O)/C(C)=C/CC(O)CC3C=CCC(CC(OC)C(C)C(O)CC(O)C(C)C(C(C)C(O)C(C)CCC4CC(OC)CC(C)O4)OC(=O)/C(C)=C/CC(O)CC4C=CCC(CC(OC)C(C)C(O)CC(O)C2C)O4)O3)C1` (stereo not shown) [Misakinolide A], the T/C with P388 leukemia (dose of 0.1 mg/kg (mouse) against P388 leukemia) was 140%. Besides, the “IC50 (cytotoxicity)” value in the series on L1210 is 0.035 µg/mL (≈ 0.0262 µM).
`COC1CC(C)OC(CCC(C)C(O)C(C)C2OC(=O)/C=C\C(C)=C\CC(O)CC3C=CCC(CC(OC)C(C)C(O)CC(O)C(C)C(C(C)C(O)C(C)CCC4CC(O)CC(C)O4)OC(=O)/C=C\C(C)=C\CC(O)CC4C=CCC(CC(OC)C(C)C(O)CC(O)C2C)O4)O3)C1` (stereo not shown) [Swinholide C]: the “IC50 (cytotoxicity)” value in the series with L1210 was 0.14 µg/mL (≈ 0.102 µM); in the series on KB cells it was 0.05 µg/mL (≈ 0.0363 µM).
For `COCC1C/C(C)=C\C2OC(=O)C/C(=C\C=C\C(O)CC(O)C(C)C(OC)CCC(C)C(OC)CC3CC(=CC(=O)O3)CC(=O)N/C=C\C=C\CC(CC(=O)OC)CC(O)C/C(C)=C\C=C\C(OC)CC(=O)O1)C2C` (stereo not shown) [Nanomolide C], in the series with MDA-MB-231 [4], the LC50 (concentration killing 50% of cells) was 0.0228 µM, halving of growth (GI50) required 0.0152 µM and the TGI was found to be 1.90E−08 Molar. In the series on HT29 [5], the TGI turned out to be 1.52E−08 Molar, the CC50 amounted to 0.0218 µM and the GI50 worked out at 0.0123 µM. In the series on A549 [6], the TGI is reported as 2.47E−08 Molar, the CC50 came out at 0.0493 µM and halving of growth (GI50) required 0.0142 µM.
With `COCC1C/C(C)=C\C2OC(=O)C=C(C/C=C/C(O)CC(O)C(C)C(OC)CCC(C)C(OC)CC3CC(=CC(=O)O3)CC(=O)N/C=C\C=C\CC3CC(=O)OC(C/C(C)=C\C=C\C(OC)CC(=O)O1)C3)C2C` (stereo not shown) [Nanomolide B], in the series on MDA-MB-231 [4], the LC50 (concentration killing 50% of cells) amounted to 0.108 µM, the GI50 stood at 0.0949 µM and the TGI is listed as 9.78E−08 Molar. Further, in the series on HT29 [5], the TGI is recorded as 9.29E−08 Molar, the CC50 is 0.0978 µM and the 50% growth inhibitory concentration (GI50) stood at 0.088 µM. Moreover, in the series on A549 [6], the TGI turned out to be 1.27E−07 Molar, the CC50 was found to be 0.235 µM and halving of growth (GI50) required 0.0734 µM.
With Swinholide B, the “IC50 (cytotoxicity)” value is 0.30 µg/mL with L1210 and 0.04 µg/mL with KB cells.
Turning to `COCC1C/C(C)=C\C2OC(=O)C=C(C/C=C/C(O)CC(O)C(C)C(OC)CCC(C)C(OC)CC3CC(=CC(=O)O3)CC(=O)N/C=C\C=C\CC(CC(=O)OC)CC(O)C/C(C)=C\C=C\C(OC)CC(=O)O1)C2C` (stereo not shown) [Nanomolide A], in the series with MDA-MB-231 [4], the LC50 (concentration killing 50% of cells) turned out to be 0.0455 µM, the GI50 worked out at 0.00835 µM and the TGI is reported as 1.71E−08 Molar. Further, in the series on HT29 [5], the TGI came out at 1.04E−08 Molar, the CC50 is 0.0161 µM and the GI50 stood at 0.00759 µM. Further, in the series on A549 [6], the TGI is 1.52E−08 Molar, the CC50 is 0.0237 µM and growth was halved (GI50) at 0.0104 µM.

Source of the values: patent publication US20110118343A1, “Antitumoral Macrolides” (Pharma Mar, S. A., priority 2008, published 2011).
